Reference: patent US20080213183A1, “Free or Liposomal Gemcitabine Alone or in Combination with Free or Liposomal Idarubicin” (priority 2004, published 2008)
Counter-ions that a name gives are not always drawn. Like-named read-outs stand apart in the source and are kept apart here. Marks after values point to notes of the source that are not given here.

Columns and labels:
[1] = system: non small cell lung cancer; details: cited from earlier work
[2] = Dose range finding, maximum tolerable dose; type: in vivo; details: no significant toxicity for 30 days
Experimental: Dose range finding studies of free and liposomal idarubicin and/or gemcitabine were performed in non-tumor bearing female BDF-1 mice. Mice were weighed daily and monitored for signs of stress or toxicity (e.g., lethargy, scruffy coat, ataxia).

[3] = system: P388 lymphocytic leukemia cells; assay: MTT cytotoxicity assay with median effects (Chou and Talalay) analysis; type: cell-based, murine; details: for IC50 / IC90: Mus musculus; for IC50: P388, 72 h, read-out: IC50 (concentration required to achieve 50% cell kill); for IC90: P388, read-out: IC90 drug concentration (90% cell kill)
Experimental: For in vitro analysis, P388 wild type and doxorubicin resistant (ADR) cells were obtained from the National Cancer Institute tissue repository (Bethesda, Md., USA) and were propagated in vivo. In brief, one vial of frozen ascites was removed from the nitrogen tank and thawed at 37° C. and cells were injected i.p. into female BDF-1 mice (6-8 weeks old, 20-22 g, Charles River Laboratories, St. Constant, QC, Canada). Transfer mice were euthanized and a peritoneal lavage was performed. With a 1 cc syringe with 20 gauge needle, 0.5-1.0 ml of peritoneal fluid was removed and aliquotted into a 15 ml falcon tube containing 5 ml of Hank's Balanced Salt Solution (HBSS, no calcium or magnesium). 0.5 ml aliquot was transferred into another 15 ml conical sterile tube containing 5 ml HBSS. The cells were exposed to plastic culture wear (for adherence of monocytes) and Ficoll-Paque density centrifugation (red blood cell removal). […] For each passage, 2 female BDF-1 mice were injected with 1×10^6 cells in 0.5 ml (2×10^6 cells/ml) of P388 cell suspension intraperitoneally. This was repeated every 6-8 days to a maximum of 20 passages. Cells adequate for animal experiments were used between the 3rd-20th passage. For tissue culture experiments such as MTT cytotoxicity assays, P388 cells were obtained following peritoneal lavage and treatment to remove red blood cells and peritoneal macrophages. […] In order to assess cytotoxicity the MTT (3-(4,5-dimethylthiazol-2-yl)-2,5-diphenyl tetrazolium bromide) assay was utilized. […] The wells in the perimeter of the 96 well microtiter plates contained 0.2 ml sterile water. […] Control wells consisted of media only (200 μl/well), or cells and media (no treatment). There were 6 replicates (per plate) for all control and treatment groups). […] The media was aspirated off and 0.15 ml DMSO was added per well and resuspended on a plate shaker (5-10 min). […] The cytotoxicity upon drug exposure was quantified by expressing the percent cell viability for each treatment relative to untreated control cells (% control). […] This was further analyzed by the median effects principle by Chou and Talalay, cited above. The method by Chou and Talalay was used to distinguish between synergy, antagonism and additive effects of combined drug treatments from in vitro MTT cytotoxicity assays. This method, now provided in a software package (Calculsyn; Biosoft, Cambridge, UK), derives a median effects equation (1) to correlate drug dose and effect. Fixed ratio combinations of idarubicin and gemcitabine were initially selected on the basis of IC50 of each drug. […] Data were reported as mean±S.D. from three separate experiments, performed in triplicate.

[4] = Plasma elimination of free and liposomal gemcitabine; type: in vivo, Balb/c mice; details: 33 μmole gemcitabine/kg i.v.
Experimental: Pharmacokinetic Analysis: Balb/c mice breeders, 20-22 g, were purchased from Charles River Laboratories (St. Constant, QC, Canada) and bred in-house. Mice were housed in micro-isolator cages and given free access to food and water. All animal studies were conducted according to procedures approved by the University of British Columbia's Animal Care Committee and in accordance with the current guidelines established by the Canadian Council of Animal Care.
The plasma elimination of idarubicin and gemcitabine containing tracer quantities of 3[H]-gemcitabine was assessed. Mice were injected with 33 μmoles/kg drug administered intravenously into the lateral tail vein of Balb/c mice. At various time points up to 4 hours post drug administration, blood was collected by tail nick (collected in microfuge tubes) or cardiac puncture (collected in liquid EDTA coated tubes), centrifuged at 1000 g to isolate the plasma fraction. The plasma was placed in a separate microfuge tube and vortexed to ensure a homogenous distribution.
The tail nick procedure for obtaining blood samples was used to minimize the number of mice sacrificed. In this way, three blood samples could be obtained from a single mouse within a 24 hour time interval. In brief, the lateral tail vein of mice was nicked with a small sharp blade. A 25 μl glass pipette, pre-washed with EDTA, was used to withdraw blood. The blood was expelled into a microfuge tube containing 200 μl of 5% (wt/vol) EDTA and thoroughly mixed. Blood/EDTA samples were centrifuged for 10 minutes at 1000 g. The supernatant was transferred to a 1.5 ml microfuge tube. 250 μl Hank's balanced salt solution (HBSS) was added to the pellet, resuspended and centrifuged for 10 minutes at 1000 g. The supernatants were mixed together. Assuming a 48% hematocrit for a 20 gram Balb/c mice, approximately 13 μl plasma was obtained from a 25 μl blood sample. From the recovered plasma samples, aliquots were used to measure drug (and or lipid) concentrations.
The plasma elimination of liposomal drugs containing doxorubicin, daunorubicin, idarubicin, or gemcitabine samples administered intravenously into the lateral tail vein of Balb/c female mice was assessed. Mice were injected with 33 μmole/kg drug and 165 μmole/kg lipid. For liposomal gemcitabine samples, mice were injected with 33 μmole/kg gemcitabine at an approximate 0.1 drug-to-lipid mole ratio). At various time points post drug administration, blood was collected by tail nick or cardiac puncture. Plasma lipid and 3[H]-gemcitabine were quantified by liquid scintillation counting. Anthracyclines were extracted from plasma with a partitioning assay, followed by fluorescence spectrometer detection.
The plasma elimination data was modeled using WinNonlin (version 1.5) pharmacokinetic software (Pharsight Corporation, Mountain View, Calif., USA) to calculate pharmacokinetic parameters. […] The mean plasma AUC for a defined time interval was determined from the concentration-time curves and subsequent calculation by the standard trapezoidal rule.
Liposome mediated increases in gemcitabine blood residence time were also evaluated as follows: Free and liposomal gemcitabine formulations were administered to female Balb/c mice at a dose of 33 μmole gemcitabine/kg (9.9 mg/kg) and 165 μmole total lipid/kg.

[5] = at IC90, GEM/IDA 1:1 fixed molar ratio
[6] = at IC90, GEM/IDA 1:10 fixed molar ratio
[7] = female, Balb/c, mouse, iv, 33 μmole/kg, plasma

Experimental for P388 tumors: For in vivo testing of antitumor activity was evaluated in P388 lymphocytic leukemia model.
Treatments commenced 24 hours post tumor cell inoculation. Treatment groups consisted of saline (control) and 0.5, 1, 2 and 3 mg/kg doses of free or liposomal idarubicin administered as a single i.v. bolus injection and between 100 to 500 mg/kg gemcitabine and 1 to 5 mg/kg liposomal gemcitabine (selected on the basis of dose range finding studies). Fixed dose ratios for combination treatments were defined on the basis of 0.66 MTD when used as a single agent. […] Median survival and percent weight loss was determined for each treatment.
All data values are reported as mean±standard deviation (S.D.). A standard one-way analysis of variance (ANOVA) was used to determine statistically significant differences of the means. For multiple comparisons, post-hoc analysis using the Tukey-Kramer test. Survival curves were computed using the Kaplan-Meier method. […] Treatment groups were subsequently analyzed using SPSS statistics software (SPSS Inc., Chicago, Ill., USA) and compared using a two sample log-rank test. P<0.05 was considered significant for all statistics tests.

**Q.** With `Nc1ccn([C@@H]2O[C@H](CO)[C@@H](O)C2(F)F)c(=O)n1` [GEM, gemcitabine hydrochloride] as the molecule, how does the overall response rate ([1]; 800-1250 mg/m2, in combination with cisplatin) read?
**A.** 50%

**Q.** And the overall response rate ([1]; 800-1250 mg/m2, single agent)?
**A.** 20%

**Q.** What about the median survival ([1]; in combination with cisplatin) of the same molecule?
**A.** greater than 1 year

**Q.** And the maximum tolerable dose [2]?
**A.** 500 mg/kg

**Q.** And the IC50 [3]?
**A.** 0.26 nM

**Q.** And the IC90 [3]?
**A.** 0.9 nM

**Q.** What about the “dose reduction index (DRI)” value [3, 5] of the same molecule?
**A.** 1.8

**Q.** And the “dose reduction index (DRI)” value [3, 6]?
**A.** 14

**Q.** What about the “fold more cytotoxic than idarubicin” value ([3]; from IC50) of the same molecule?
**A.** approximately 10 fold

**Q.** And the AUC0-t ([4]; Tlast 4 hours)?
**A.** 0.1^b μmole · h · ml^−1

**Q.** And the AUMC ([4]; plasma)?
**A.** 0.3 μmole · h^2 · ml^−1

**Q.** What about the MRT last [4, 7] of the same molecule?
**A.** 3.1 h

**Q.** And the clearance [4, 7]?
**A.** 0.102 mL/min

**Q.** What about the half-life [4, 7] of the same molecule?
**A.** 2.1 h

**Q.** And the “% ILS” value (P388 tumors; GEM 100 mg/kg)?
**A.** 63%

**Q.** And the “% Weight Change, day 5” value (P388 tumors; GEM 100 mg/kg)?
**A.** 0.4%

**Q.** What about the “Cell Kill” value (P388 tumors; GEM 100 mg/kg) of the same molecule?
**A.** 2.9 LOG10

**Q.** And the MST (P388 tumors; GEM 100 mg/kg)?
**A.** 13 days

**Q.** What about the Survivors (P388 tumors; GEM 100 mg/kg) of the same molecule?
**A.** 0/6

**Q.** And the “% ILS” value (P388 tumors; GEM 200 mg/kg)?
**A.** 81%

**Q.** And the “% Weight Change, day 5” value (P388 tumors; GEM 200 mg/kg)?
**A.** 3.0%

**Q.** What about the “Cell Kill” value (P388 tumors; GEM 200 mg/kg) of the same molecule?
**A.** 3.7 LOG10

**Q.** And the MST (P388 tumors; GEM 200 mg/kg)?
**A.** 14.5 days

**Q.** What about the Survivors (P388 tumors; GEM 200 mg/kg) of the same molecule?
**A.** 0/6

**Q.** What about the “% ILS” value (P388 tumors; GEM 300 mg/kg) of the same molecule?
**A.** 81%

**Q.** And the “% Weight Change, day 5” value (P388 tumors; GEM 300 mg/kg)?
**A.** 2.3%

**Q.** What about the “Cell Kill” value (P388 tumors; GEM 300 mg/kg) of the same molecule?
**A.** 3.7 LOG10

**Q.** And the MST (P388 tumors; GEM 300 mg/kg)?
**A.** 14.5 days

**Q.** And the Survivors (P388 tumors; GEM 300 mg/kg)?
**A.** 0/6

**Q.** What about the “% Weight Change, day 5” value (P388 tumors; GEM 400 mg/kg) of the same molecule?
**A.** 1.8%

**Q.** And the “Cell Kill” value (P388 tumors; GEM 400 mg/kg)?
**A.** 4.0 LOG10

**Q.** And the MST (P388 tumors; GEM 400 mg/kg)?
**A.** 15 days

**Q.** And the Survivors (P388 tumors; GEM 400 mg/kg)?
**A.** 0/6

**Q.** And the “% ILS” value (P388 tumors; GEM 400 mg/kg, hydrochloride)?
**A.** 88%

**Q.** And the “% ILS” value (P388 tumors; GEM 400 mg/kg, listed as free gemcitabine, hydrochloride)?
**A.** 87.5%

**Q.** And the “% ILS” value (P388 tumors; GEM 500 mg/kg)?
**A.** 75%

**Q.** What about the “% Weight Change, day 5” value (P388 tumors; GEM 500 mg/kg) of the same molecule?
**A.** 0.0%

**Q.** What about the “Cell Kill” value (P388 tumors; GEM 500 mg/kg) of the same molecule?
**A.** 3.4 LOG10

**Q.** What about the MST (P388 tumors; GEM 500 mg/kg) of the same molecule?
**A.** 14 days

**Q.** And the Survivors (P388 tumors; GEM 500 mg/kg)?
**A.** 0/10

**Q.** And the maximum therapeutic dose (P388 tumors; P388 model, single agent)?
**A.** 400 mg/kg

**Q.** For `CC(=O)[C@]1(O)Cc2c(O)c3c(c(O)c2[C@@H](O[C@H]2C[C@H](N)[C@H](O)[C@H](C)O2)C1)C(=O)c1ccccc1C3=O` [IDA, idarubicin hydrochloride], which IC50 [3] is on record?
**A.** 1.8 nM

**Q.** What about the IC90 [3] of the same molecule?
**A.** 5.7 nM

**Q.** And the “dose reduction index (DRI)” value [3, 5]?
**A.** 11.8

**Q.** And the “dose reduction index (DRI)” value [3, 6]?
**A.** 8.5

**Q.** And the “fold reduction in concentration required” value ([3]; at IC90, GEM/IDA 10:1 fixed ratio)?
**A.** 180 fold

**Q.** And the “% ILS” value (P388 tumors; IDA 0.5 mg/kg)?
**A.** 13%

**Q.** And the “% Weight Change, day 5” value (P388 tumors; IDA 0.5 mg/kg)?
**A.** 13.6%

**Q.** What about the “Cell Kill” value (P388 tumors; IDA 0.5 mg/kg) of the same molecule?
**A.** 0.6 LOG10

**Q.** What about the MST (P388 tumors; IDA 0.5 mg/kg) of the same molecule?
**A.** 9 days

**Q.** What about the Survivors (P388 tumors; IDA 0.5 mg/kg) of the same molecule?
**A.** 0/12

**Q.** What about the “% ILS” value (P388 tumors; IDA 1 mg/kg) of the same molecule?
**A.** 50%

**Q.** What about the “% Weight Change, day 5” value (P388 tumors; IDA 1 mg/kg) of the same molecule?
**A.** 2.1%

**Q.** And the “Cell Kill” value (P388 tumors; IDA 1 mg/kg)?
**A.** 2.3 LOG10

**Q.** And the MST (P388 tumors; IDA 1 mg/kg)?
**A.** 12 days

**Q.** And the Survivors (P388 tumors; IDA 1 mg/kg)?
**A.** 0/12

**Q.** And the “% ILS” value (P388 tumors; IDA 2 mg/kg)?
**A.** 113%

**Q.** What about the “% Weight Change, day 5” value (P388 tumors; IDA 2 mg/kg) of the same molecule?
**A.** −1.4%

**Q.** And the “Cell Kill” value (P388 tumors; IDA 2 mg/kg)?
**A.** 5.1 LOG10

**Q.** And the MST (P388 tumors; IDA 2 mg/kg)?
**A.** 17 days

**Q.** And the Survivors (P388 tumors; IDA 2 mg/kg)?
**A.** 1/12
